Experimental data taken from patent US9695155B2, “Herbicidal substituted pyrimidinyloxy benzene compounds” (E. I. DU PONT DE NEMOURS AND COMPANY, priority 2013, dated 2017).

Tests used:
dayflower = test: Test E postemergence; assay type: in vivo, Commelina virginica; settings: Commelina virginica, post-emergence, read-out: Plant response rating, Dayflower, VA; for pest or weed control at 31 g/ha: 31 g ai/ha; for pest or weed control at 62 g/ha: 62 g ai/ha; for pest or weed control at 125 g/ha: 125 g ai/ha; for pest or weed control at 16 g/ha: postemergence, 16 g ai/ha, scale 0 to 100, 0 no effect, 100 complete control
Source text: (§1) Seeds of plant species selected from corn (Zea mays), soybean (Glycine max), velvetleaf (Abutilon theophrasti), lambsquarters (Chenopodium album), wild poinsettia (Euphorbia heterophylla), palmer pigweed (Amaranthus palmeri), waterhemp (common waterhemp, Amaranthus rudis), surinam grass (Brachiaria decumbens), large (Lg) crabgrass (Digitaria sanguinalis), Brazilian crabgrass (Digitaria horizontalis), fall panicum (Panicum dichotomiflorum), giant foxtail (Setaria faberii), green foxtail (Setaria viridis), goosegrass (Eleusine indica), johnsongrass (Sorghum halepense), ragweed (common ragweed, Ambrosia elatior), barnyardgrass (Echinochloa crus-galli), sandbur (southern sandbur, Cenchrus echinatus), arrowleaf sida (Sida rhombifolia), Italian ryegrass (Lolium multiflorum), dayflower (Virginia (VA) dayflower, Commelina virginica), field bindweed (Convolvulus arvensis), morningglory (Ipomoea coccinea), nightshade (eastern black nightshade, Solanum ptycanthum), kochia (Kochia scoparia), yellow nutsedge (Cyperus esculentus), cocklebur (common cocklebur, Xanthium strumarium), smartweed (ladysthumb smartweed, and hairy beggarticks (Bidens pilosa), were planted into a silt loam soil and treated preemergence with test chemicals formulated in a non-phytotoxic solvent mixture which included a surfactant.
(§2) At the same time, plants from these crop and weed species and also horseweed (Canada horseweed, Conyza canadensis), waterhemp_RES1, (ALS & Triazine resistant common waterhemp, Amaranthus rudis), and waterhemp_RES2, (ALS & HPPD resistant common waterhemp, Amaranthus rudis) were planted in pots containing Redi-Earth® planting medium (Scotts Company, 14111 Scottslawn Road, Marysville, Ohio 43041) comprising spaghnum peat moss, vermiculite, wetting agent and starter nutrients were treated with postemergence applications of test chemicals formulated in the same manner. Plants ranged in height from 2 to 18 cm for postemergence treatments (1- to 4-leaf stage). Treated plants and controls were maintained in a greenhouse for 14 to 21 days, after which time all species were compared to controls and visually evaluated. Plant response ratings, summarized in Table E, are based on a scale of 0 to 100 where 0 is no effect and 100 is complete control. A dash (-) response means no test result.

Brazilian crabgrass = test: Test E postemergence; assay type: in vivo, Digitaria horizontalis; settings: Digitaria horizontalis, post-emergence, read-out: Plant response rating, Crabgrass, Brazil; for pest or weed control at 31 g/ha: 31 g ai/ha; for pest or weed control at 62 g/ha: 62 g ai/ha; for pest or weed control at 125 g/ha: 125 g ai/ha; for pest or weed control at 16 g/ha: postemergence, 16 g ai/ha, scale 0 to 100, 0 no effect, 100 complete control
Source text: as §1, §2

corn = test: Test E postemergence; assay type: in vivo, Zea mays; settings: Zea mays, post-emergence; for corn plant response (injury) rating, 0-100 at 31 g/ha: 31 g ai/ha; for corn plant response (injury) rating, 0-100 at 62 g/ha: 62 g ai/ha; for corn plant response (injury) rating, 0-100 at 125 g/ha: 125 g ai/ha; for corn plant response (injury) rating, 0-100 at 16 g/ha: postemergence, 16 g ai/ha, scale 0 to 100, 0 no effect, 100 complete control
Source text: as §1, §2

Italian ryegrass = test: Test E postemergence; assay type: in vivo, Lolium multiflorum; settings: Lolium multiflorum, post-emergence, read-out: Plant response rating, Ryegrass, Italian; for pest or weed control at 62 g/ha: 62 g ai/ha; for pest or weed control at 125 g/ha: 125 g ai/ha; for pest or weed control at 16 g/ha: postemergence, 16 g ai/ha, scale 0 to 100, 0 no effect, 100 complete control
Source text: as §1, §2

soybean = test: Test E postemergence; assay type: in vivo, Glycine max; settings: Glycine max, post-emergence; for plant response (crop injury) rating, soybean, 0-100 scale at 31 g/ha: 31 g ai/ha; for plant response (crop injury) rating, soybean, 0-100 scale at 62 g/ha: 62 g ai/ha; for plant response (crop injury) rating, soybean, 0-100 scale at 125 g/ha: 125 g ai/ha; for plant response (crop injury) rating, soybean, 0-100 scale at 16 g/ha: postemergence, 16 g ai/ha, scale 0 to 100, 0 no effect, 100 complete control
Source text: as §1, §2

rice = test: Test C flooded paddy test; assay type: in vivo, Oryza sativa; settings: Flood, scale 0 to 100 (0 no effect, 100 complete control), 13 to 15 days
Outline: (§3)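 Test compounds are applied straight into paddy water held 3 cm above the soil surface, with that flood maintained for the whole test. After 13 to 15 days in the greenhouse, each species is scored visually relative to controls.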

sedge, umbrella = test: Test C flooded paddy test; assay type: in vivo, Cyperus difformis; settings: Flood, scale 0 to 100 (0 no effect, 100 complete control), 13 to 15 days
Outline: as §3

[1] = Postemergence, 250 g ai/ha, scale 0 to 100

Structure (SMILES)	pest or weed control at 31 g/ha (dayflower; Postemergence, scale 0 to 100)	pest or weed control at 62 g/ha (dayflower; Postemergence, scale 0 to 100)	pest or weed control at 125 g/ha (dayflower; Postemergence, scale 0 to 100)	pest or weed control at 16 g/ha (dayflower)	pest or weed control at 31 g/ha (Brazilian crabgrass; Postemergence, scale 0 to 100)	pest or weed control at 62 g/ha (Brazilian crabgrass; Postemergence, scale 0 to 100)	pest or weed control at 125 g/ha (Brazilian crabgrass; Postemergence, scale 0 to 100)	pest or weed control at 16 g/ha (Brazilian crabgrass)	corn plant response (injury) rating, 0-100 at 31 g/ha (corn; Postemergence, scale 0 to 100)	corn plant response (injury) rating, 0-100 at 62 g/ha (corn; Postemergence, scale 0 to 100)	corn plant response (injury) rating, 0-100 at 125 g/ha (corn; Postemergence, scale 0 to 100)	corn plant response (injury) rating, 0-100 at 16 g/ha (corn)	pest or weed control at 62 g/ha (Italian ryegrass; Postemergence, scale 0 to 100)	pest or weed control at 125 g/ha (Italian ryegrass; Postemergence, scale 0 to 100)	pest or weed control at 16 g/ha (Italian ryegrass)	plant response (crop injury) rating, soybean, 0-100 scale at 31 g/ha (soybean; Postemergence, scale 0 to 100)	plant response (crop injury) rating, soybean, 0-100 scale at 62 g/ha (soybean; Postemergence, scale 0 to 100)	plant response (crop injury) rating, soybean, 0-100 scale at 125 g/ha (soybean; Postemergence, scale 0 to 100)	plant response (crop injury) rating, soybean, 0-100 scale at 16 g/ha (soybean)	Plant response rating, Rice (rice; 250 g ai/ha)	other results
Clc1cnn(-c2ccccc2Oc2ncc(Br)cn2)c1 [Compound 5, 5-bromo-2-[2-(4-chloro-1H-pyrazol-1-yl)phenoxy]pyrimidine]	10%	10%	40%	0%	5%	10%	10%	0%	0%	0%	0%	0%	0%	0%	0%	30%	70%	80%	20%		pest or weed control at 250 g/ha (dayflower; [1]): 75%; pest or weed control at 250 g/ha (Brazilian crabgrass; [1]): 20%; corn plant response (injury) rating, 0-100 at 250 g/ha (corn; [1]): 0%; pest or weed control at 31 g/ha (Italian ryegrass; Postemergence, 31 g ai/ha, scale 0 to 100): 0%; pest or weed control at 250 g/ha (Italian ryegrass; [1]): 0%; plant response (crop injury) rating, soybean, 0-100 scale at 250 g/ha (soybean; [1]): 95%
N#Cc1cccc(Oc2ncc(F)cn2)c1-n1cc(C(F)(F)F)cn1 [Compound 79, 3-[(5-fluoro-2-pyrimidinyl)oxy]-2-[4-(trifluoromethyl)-1H-pyrazol-1-yl]benzonitrile]	30%	50%	50%	10%	10%	20%	30%	0%	0%	10%	15%	0%	0%	0%	0%	70%	95%	95%	60%		
FC(F)c1cnn(-c2ccccc2Oc2ncc(Cl)cn2)c1 [Compound 80, 5-chloro-2-[2-[4-(difluoromethyl)-1H-pyrazol-1-yl]phenoxy]pyrimidine]																				0	Plant response rating, Rice (rice; 500 g ai/ha): 0; Plant response rating, Rice (rice; 1000 g ai/ha): 0; Plant response rating, Rice (rice; 2000 g ai/ha): 0; Plant response rating, Sedge, Umbrella (sedge, umbrella; 250 g ai/ha): 0; Plant response rating, Sedge, Umbrella (sedge, umbrella; 500 g ai/ha): 0; Plant response rating, Sedge, Umbrella (sedge, umbrella; 1000 g ai/ha): 60; Plant response rating, Sedge, Umbrella (sedge, umbrella; 2000 g ai/ha): 85
N#Cc1cccc(Oc2ncc(Cl)cn2)c1-n1cc(OC(F)F)cn1 [Compound 97]																				0	Plant response rating, Rice (rice; 31 g ai/ha): 0; Plant response rating, Rice (rice; 62 g ai/ha): 0; Plant response rating, Rice (rice; 125 g ai/ha): 0; Plant response rating, Sedge, Umbrella (sedge, umbrella; 31 g ai/ha): 60; Plant response rating, Sedge, Umbrella (sedge, umbrella; 62 g ai/ha): 60; Plant response rating, Sedge, Umbrella (sedge, umbrella; 125 g ai/ha): 75; Plant response rating, Sedge, Umbrella (sedge, umbrella; 250 g ai/ha): 80
